Reference: patent US6063814A, “Phorbol esters as anti-neoplastic and white blood cell elevating agents” (priority 1997, dated 2000)
Like-named read-outs stand apart in the source and are kept apart here.

Columns and labels:
[1] = format: in vivo, humans
Method: TPA solution in a sterile syringe was injected into 200 ml of saline and mixed well for i.v. infusion.
2. The Toxicity and Side Effects of Different TPA Doses Administered Clinically:
One mg TPA in solution was mixed well with 200 ml of saline for i.v. infusion which was completed in 1 h at the rate of 16 μg/min. […] The above symptoms could be alleviated by giving the patients glucocorticoids. […] The cardiac, hepatic, renal and pulmonary functions were all found to be normal.
0.5 mg of TPA in solution was mixed well with 200 ml of saline for i.v. infusion which was completed in 1 h at the rate of 8 μg/min. […] Difficulty in breathing was not observed. The cardiac, hepatic, renal and pulmonary functions were all normal.
0.25 mg of TPA in solution was mixed well with 200 ml of saline for i.v. infusion which was completed in 1 h at the rate of 4 μg/min. […] The cardiac, hepatic, renal and pulmonary functions were all normal.

[2] = tested on: leukemia (bone marrow myeloblast and promyelocyte); test: Clinical treatment of leukemia patients with TPA; format: in vivo, humans
[3] = tested on: human leukemia cell line HL-60; settings: cited from earlier work
[4] = tested on: cell cultures; settings: Chemsyn product brochure; cited from earlier work
[5] = 0.25 mg/patient×4/week, i.v. infusion in 1 h
[6] = 0.5 mg/patient×2/week, i.v. infusion in 1 h
[7] = 1 mg/patient/week, i.v. infusion in 1 h
[8] = subject 8, AML-M3, retinoic acid failed
[9] = subject 9, secondary aplastic anemia, TPA 0.25 mg×2

Which results are given for `CCCCCCCCCCCCCC(=O)O[C@@H]1[C@@H](C)[C@@]2(O)[C@@H](C=C(CO)C[C@]3(O)C(=O)C(C)=C[C@@H]23)[C@@H]2C(C)(C)[C@]12OC(C)=O` [TPA, Phorbol 12-Myristate-13-Acetate]?
Hb in urine [1, 5]: No Hb was detected in the urine; cardiac, hepatic, renal and pulmonary functions [1, 5]: normal; chills and fever [1, 5]: also observed, but to a much lesser extent than with the higher dosages; difficulty in breathing [1, 5]: no patient suffered difficulty in breathing; Hb in urine [1, 6]: Occasionally, Hb was detected in patients urine; cardiac, hepatic, renal and pulmonary functions [1, 6]: normal; difficulty in breathing [1, 6]: not observed; tolerability ([1]; 0.5 mg/patient×2/week, versus 1 mg): tolerated the lower dose more easily; Hb in urine [1, 7]: Hb was detected in the urine; bleeding [1, 7]: a minority of patients to bleed; cardiac, hepatic, renal and pulmonary functions [1, 7]: normal; difficulty in breathing [1, 7]: several patients suffered for a short period of time difficulty in breathing; duration of chills [1, 7]: about 30 min; duration of fever [1, 7]: 3 to 5 h; fever, patients' temperature [1, 7]: 37.5-39.5 °C; onset of chills [1, 7]: One hour after TPA administration; perspiration [1, 7]: light to heavy perspiration; reversibility of side effects [1, 7]: short lived and reversible; local irritation ([1]; TPA application): strong local irritation; Bone marrow myeloblast+promyelocyte after TPA treatment [2, 8]: 17%; Hb after TPA treatment [2, 8]: 66 g/L; WBC after TPA treatment [2, 9]: 1.9e+09 L⁻¹; treatment termination [2, 9]: Due to severe anemia, the TPA treatment was terminated; Bone marrow Myeloblast and promyelocyte, early in TPA treatment ([2]; subject 10, CML, 0.25 mg TPA once): 9%; myeloblast, promyelocyte, myelocyte ([2]; subject 10, CML, TPA 0.25 mg once, fifth day): completely disappeared; differentiation to nondividing macrophage-like cells ([3]; Weinberg, Science 213:655-657, 1981): causes differentiation of cells of the human leukemia cell line HL-60 to nondividing macrophage-like cells; induction of differentiation ([3]; stable human promyelocytic leukemic cell line HL-60): induces differentiation; mitogenic activity [4]: powerful mitogen in cell cultures
